The term MIC denotes the least concentration at which growth counts as inhibited. The term EC50 denotes the concentration at which the effect is half-maximal. One may read the IC50 as the midpoint of a concentration-inhibition curve. The inhibition is the share of the control response that was lost under treatment.

Values after ≈ are worked out from the molar mass of the structure shown.

Test [1] deals with Staphylococcus aureus. The test can be described thus: Antibacterial activity against Staphylococcus aureus MTCC 96 assessed as bacterial growth inhibition incubated for 24 hrs by broth microdilution method. The class given is functional. A general note: Dilution methods test growth across graded concentrations, often in twofold steps.
In test [2] the test system is Staphylococcus aureus. The test can be described thus: Antibacterial activity against Staphylococcus aureus MLS-16 MTCC 2940 assessed as bacterial growth inhibition incubated for 24 hrs by broth microdilution method. The class given is functional.
Test [3] deals with T1, Free fatty acid receptor 3 (Homo sapiens, UniProt O14843).
T1 sequence (O14843 whole entry): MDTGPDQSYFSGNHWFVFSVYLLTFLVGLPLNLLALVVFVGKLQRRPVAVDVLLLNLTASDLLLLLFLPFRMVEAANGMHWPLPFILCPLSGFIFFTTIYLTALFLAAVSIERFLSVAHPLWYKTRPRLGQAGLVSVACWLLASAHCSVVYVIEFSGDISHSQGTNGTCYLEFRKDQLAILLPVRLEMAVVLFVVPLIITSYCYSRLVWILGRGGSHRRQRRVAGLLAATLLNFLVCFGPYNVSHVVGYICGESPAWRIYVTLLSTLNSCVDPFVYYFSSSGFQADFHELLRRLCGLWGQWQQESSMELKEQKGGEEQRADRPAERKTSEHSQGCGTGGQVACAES
The test can be described thus: Agonist activity at FFA3 (unknown origin) expressed in human Flp-In-293 cells assessed as inhibition of forskolin-stimulated cAMP accumulation incubated for 30 mins by Lance cAMP assay. The class given is cell-based. On the technique in general: Cyclic AMP is a second messenger, typically raised through Gs and lowered through Gi signalling.

Test [4] concerns the target Hydroxycarboxylic acid receptor 2 (Homo sapiens, UniProt Q8TDS4). The test can be described thus: Agonist activity at human HCA2 expressed in human Flp-In-293 cells assessed as inhibition of forskolin-stimulated cAMP accumulation incubated for 30 mins by Lance cAMP assay. The class given is cell-based.
For the next test, the system named is A549. The test can be described thus: Anticancer activity against human A549 cells assessed as reduction in cell viability incubated for 24 hrs by MTT assay. The class given is functional, cell-based. Particulars: A549, 24 h. On the technique in general: Tetrazolium dyes change colour on reduction, which living cells bring about.
The subject of test [5] is Aspergillus ochraceus. The test can be described thus: Antifungal activity against Aspergillus ochraceus assessed as diameter of inhibition zone by disc diffusion method. The class given is functional.
Test [6] relates to Penicillium chrysogenum. The test can be described thus: Antifungal activity against Penicillium chrysogenum assessed as diameter of inhibition zone by disc diffusion method. The class given is functional.
The test system of test [7] is Aspergillus ochraceus. The test can be described thus: Antifungal activity against Aspergillus ochraceus AUCC-230 assessed as diameter of inhibition zone incubated for 24 hrs by disc diffusion method. The class given is functional.
The test system of test [8] is Penicillium chrysogenum. Put plainly: Antifungal activity against Penicillium chrysogenum AUCC-530 assessed as diameter of inhibition zone incubated for 24 hrs by disc diffusion method. The class given is functional.
The subject of test [9] is Staphylococcus aureus. Put plainly: Antibacterial activity against Staphylococcus aureus NCTC-7447 assessed as diameter of inhibition zone incubated for 24 hrs by disc diffusion method. The class given is functional.
A further test deals with Bacillus cereus. The test can be described thus: Antibacterial activity against Bacillus cereus ATCC-14579 assessed as diameter of inhibition zone incubated for 24 hrs by disc diffusion method. The class given is functional.
The test system of another test is Serratia marcescens. The test can be described thus: Antibacterial activity against Serratia marcescens IMRU-70 assessed as diameter of inhibition zone incubated for 24 hrs by disc diffusion method. The class given is functional.
A further test relates to Proteus mirabilis. Put plainly: Antibacterial activity against Proteus mirabilis NTCC-289 assessed as diameter of inhibition zone incubated for 24 hrs by disc diffusion method. The class given is functional.
For a further test, the system named is HepG2. The test can be described thus: Anticancer activity against human HepG2 cells assessed as reduction in cell viability incubated for 48 hrs by MTT assay. The class given is functional, cell-based. The conditions noted are these: HepG2, 48 h.
The next test has as its target Alpha-glucosidase (Saccharomyces cerevisiae S288c, UniProt P53341+P38158+P07265). Put plainly: Inhibition of Saccharomyces cerevisiae alpha-glucosidase assessed as decrease in release of p-nitrophenol using pNPG as substrate incubated for 10 mins by spectroscopic analysis. The class given is protein assay.
For another test, the system named is MCF7. The test can be described thus: cells. The conditions noted are these: Homo sapiens, MCF7, 48 h.
The subject of the next test is Clostridium tetani. Put plainly: Antibacterial activity against Clostridium tetani MTCC 449 assessed as bacterial growth inhibition by broth microdilution method. The class given is functional.
For the next test, the system named is Aspergillus fumigatus. The test can be described thus: Antifungal activity against Aspergillus fumigatus MTCC 227 assessed as fungal growth inhibition by broth microdilution method. The class given is functional.
In test [10] the test system is Mycobacterium tuberculosis. The test can be described thus: Antitubercular activity against Mycobacterium tuberculosis H37Rv assessed as bacterial growth inhibition at 250 ug/ml. The class given is functional.
Test [11] relates to Mycobacterium tuberculosis. Put plainly: Antitubercular activity against Mycobacterium tuberculosis H37Rv assessed as bacterial growth inhibition at 100 ug/ml. The class given is functional.
The next test concerns Plasmodium falciparum. The test can be described thus: microbe, parasite or virus in culture.
Test [12] concerns Staphylococcus aureus. The test can be described thus: Antibacterial activity against Staphylococcus aureus NCIM 2654 assessed as diameter of inhibition zone incubated for 24 hrs by agar well diffusion method. The class given is functional.
A further test deals with Candida albicans. The test can be described thus: Antifungal activity against Candida albicans assessed as diameter of inhibition zone incubated for 48 hrs by agar well diffusion method. The class given is functional.
A short description of test [13]: Antioxidant activity assessed as DPPH radical scavenging activity at 12 ug incubated for 30 mins by spectrophotometric analysis. The class given is functional. Particulars: dose 12.0 µg.
Test [14] deals with Staphylococcus aureus. Put plainly: Antibacterial activity against Staphylococcus aureus assessed as diameter of inhibition zone. The class given is functional.
The subject of a further test is Bacillus subtilis. Put plainly: Antibacterial activity against Bacillus subtilis assessed as diameter of inhibition zone. The class given is functional.
A further test has as its system Escherichia coli. The test can be described thus: Antibacterial activity against Escherichia coli assessed as diameter of inhibition zone. The class given is functional.
Test [15] relates to Salmonella typhimurium. Put plainly: Antibacterial activity against Salmonella typhimurium assessed as diameter of inhibition zone. The class given is functional, Salmonella enterica subsp. enterica serovar Typhimurium.
For test [16], the system named is Salmonella typhimurium. The test can be described thus: Antibacterial activity against Salmonella typhimurium MTCC 98 assessed as bacterial growth inhibition by broth microdilution method. The class given is functional, Salmonella enterica subsp. enterica serovar Typhimurium. The conditions noted are these: Salmonella enterica.

Sequence of Hydroxycarboxylic acid receptor 2 (Q8TDS4 whole entry): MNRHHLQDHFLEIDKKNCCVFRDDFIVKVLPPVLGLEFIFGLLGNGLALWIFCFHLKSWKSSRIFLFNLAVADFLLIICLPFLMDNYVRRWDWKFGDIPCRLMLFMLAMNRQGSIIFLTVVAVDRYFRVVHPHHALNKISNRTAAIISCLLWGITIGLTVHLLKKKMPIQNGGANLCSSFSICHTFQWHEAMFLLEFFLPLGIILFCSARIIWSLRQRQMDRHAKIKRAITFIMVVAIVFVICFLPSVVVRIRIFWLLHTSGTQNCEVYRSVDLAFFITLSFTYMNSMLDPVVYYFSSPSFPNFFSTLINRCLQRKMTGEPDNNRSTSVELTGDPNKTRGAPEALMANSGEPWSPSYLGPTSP

Consider `Cc1cc2c(c(=O)o1)C(c1ccccc1)c1c(Nc3ccc([N+](=O)[O-])cc3)ncnc1O2` (centres undefined), for which the MIC in the test with Staphylococcus aureus [1] worked out at 7.8 µg/mL (≈ 18.2 µM); in the test on Staphylococcus aureus [2] it was 15.6 µg/mL (≈ 36.4 µM).

As to `CCCc1cc(=O)oc2[nH]c(=S)[nH]c(=O)c12`, the EC50 in test [3] stood at 0.22 µM; in test [4], 0.051 µM.

Take `Cc1cc2c(c(=O)o1)C(c1ccccc1)c1c(Nc3ccc(Cl)cc3)ncnc1O2` (centres undefined): the MIC with Staphylococcus aureus [2] worked out at 15.6 µg/mL (≈ 37.3 µM).

For `Cc1cc(=O)oc2[nH]c(=S)[nH]c(=O)c12`, the EC50 is 0.22 µM in test [3] and 0.051 µM in test [4].

`O=c1cc(CCCCCl)c2c(=O)[nH]c(=S)[nH]c2o1`: the half-maximal effective concentration (EC50) in test [3] was determined as 0.22 µM; in test [4], 0.051 µM.

`CCOC(=O)C1=C(C)Oc2nc(C)n(Cc3cn(-c4ccc([N+](=O)[O-])cc4)nn3)c(=O)c2C1c1cccs1` (centres undefined): the IC50 in the test on A549 worked out at 1.85 µM.

As for NYSTATIN, the inhibition zone (IZ) with Aspergillus ochraceus [5] turned out to be 22 mm; with Penicillium chrysogenum [6], 24 mm; in the test on Aspergillus ochraceus [7] it was 22 mm; with Penicillium chrysogenum [8], 24 mm.

Regarding `CCOC(=O)C1=C(C)Oc2nc(C)n(Cc3cn(-c4ccc(OC)cc4[N+](=O)[O-])nn3)c(=O)c2C1c1ccccc1` (centres undefined), the IC50 with A549 came to 5.76 µM.

With `CCOC(=O)n1c(=O)nc2c3c(ncn21)Oc1c(c(=O)oc2ccccc12)C3c1ccc(Cl)cc1` (centres undefined), the “diameter of the inhibition zone (DIZ)” value was 18 mm in the test with Staphylococcus aureus [9]; 19 mm with Bacillus cereus; 21 mm in the test on Serratia marcescens; 21 mm with Proteus mirabilis; 15 mm with Aspergillus ochraceus [7]; 13 mm with Penicillium chrysogenum [8].

Consider `O=C1CC(c2ccc(O)cc2)c2c([nH]c(=O)[nH]c2=O)O1` (centres undefined), for which the IC50 in the test with HepG2 is 8.2 µM.

Take `Cc1cc2c(c(=O)o1)C(c1ccccc1)c1c(Nc3ccccc3)ncnc1O2` (centres undefined): the minimal inhibitory concentration (MIC) with Staphylococcus aureus [2] is 15.6 µg/mL (≈ 40.7 µM).

`COc1ccc(C2CC(=O)Oc3[nH]c(=O)[nH]c(=O)c32)cc1O` (centres undefined): the IC50 in the test on HepG2 came out at 8.8 µM.

As for `COc1cc(/C=C/C(=O)C2=C(/C=C/c3ccc(O)c(OC)c3)Oc3[nH]c(=O)[nH]c(=O)c3C2c2c[nH]c3ccccc23)ccc1O` (centres undefined), the IC50 on Alpha-glucosidase was 35.3 µM.

Turning to `COc1cc(C2CC(=O)Oc3[nH]c(=O)[nH]c(=O)c32)ccc1O` (centres undefined), the IC50 in the test with HepG2 was 10.6 µM; in the test with MCF7, 8.9 µM.

Take `CCOC(=O)C1=C(N)Oc2[nH]c(=S)[nH]c(=O)c2C1c1c(C)nn(-c2ccccc2)c1-n1ccnc1` (centres undefined): the results for the MIC with Clostridium tetani and in the test on Aspergillus fumigatus were 100 µg/mL (≈ 203 µM) and 200 µg/mL (≈ 407 µM), respectively. Also, the inhibition at 250 µg/mL in [10] came to 37%. Also, in [11], the inhibition at 100 µg/mL came to 30%. For the same compound, the IC50 in the test with Plasmodium falciparum was found to be 0.97 µg/mL (≈ 1.97 µM).

For `Cc1n[nH]c2c1C(c1ccc([N+](=O)[O-])cc1)c1c([nH]c(=O)[nH]c1=O)O2` (centres undefined), the “diameter of the inhibition zone (DIZ)” value with Staphylococcus aureus [12] came out at 20 mm; in the test on Candida albicans, 12 mm. The Activity in test [13] came out at 98.4%.

Turning to `COc1ccc(C2CC(=O)Oc3[nH]c(=O)[nH]c(=O)c32)cc1` (centres undefined), the half-inhibitory concentration (IC50) in the test with HepG2 turned out to be 10.6 µM.

Regarding `Cc1n[nH]c2c1C(c1ccc(Cl)cc1)c1c([nH]c(=O)[nH]c1=O)O2` (centres undefined), the figures for the “diameter of the inhibition zone (DIZ)” value in the test on Staphylococcus aureus [12] and in the test on Candida albicans were 27 mm and 18 mm, respectively. Moreover, the Activity in test [13] was 58.8%.

Turning to `CCn1cc(C(=O)O)c(=O)c2cc(F)c(N3CCNCC3)cc21` [NORFLOXACIN], the “diameter of the inhibition zone (DIZ)” value in the test with Staphylococcus aureus [14] is recorded as 14 mm; in the test with Bacillus subtilis, 24 mm; in the test with Escherichia coli, 20 mm; in the test with Salmonella typhimurium [15], 16 mm. Besides, in the test with Salmonella typhimurium [16], the MIC amounted to 10 µg/mL (≈ 31.3 µM).

The record behind these values is ChEMBL document CHEMBL5241112, “Insights into the recent progress in the medicinal chemistry of pyranopyrimidine analogs” (RSC Med Chem, 2022).
